Experimental findings from patent US10927110B2, “Cyano-subtituted heterocycles with activity as inhibitors of USP30” (MISSION THERAPEUTICS LIMITED, priority 2016, dated 2021) are described below.

One may read the IC50 as the concentration that inhibits the measured activity by half.

The target in the assay is USP30 (Homo sapiens (Human), UniProt Q70CQ3). Description: USP30 Biochemical IC50 Assay. The conditions noted are these: fluorescence polarisation, TAMRA labelled peptide linked to ubiquitin; 30 min pre-incubation, read after 2 h at room temperature; read-out: IC50 range. As to the method: USP30 Biochemical IC50 Assay
Chain of USP30 (Q70CQ3 57-517): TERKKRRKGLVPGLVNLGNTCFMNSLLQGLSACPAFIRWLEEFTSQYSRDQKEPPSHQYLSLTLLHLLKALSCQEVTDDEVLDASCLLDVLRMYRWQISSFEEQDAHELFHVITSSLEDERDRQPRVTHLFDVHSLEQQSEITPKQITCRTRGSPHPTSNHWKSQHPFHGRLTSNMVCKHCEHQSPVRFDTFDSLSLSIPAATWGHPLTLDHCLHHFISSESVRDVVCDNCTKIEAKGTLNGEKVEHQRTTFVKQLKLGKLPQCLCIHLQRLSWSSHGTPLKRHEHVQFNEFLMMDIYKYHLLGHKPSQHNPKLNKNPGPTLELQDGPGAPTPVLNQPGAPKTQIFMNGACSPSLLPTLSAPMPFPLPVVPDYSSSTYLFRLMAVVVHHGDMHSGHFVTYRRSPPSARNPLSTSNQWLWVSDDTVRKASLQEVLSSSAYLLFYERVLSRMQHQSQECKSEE
Dilution plates were prepared at 21 times the final concentration (2100 μM for a final concentration of 100 μM) in 50% DMSO in a 96-well polypropylene V-bottom plate (Greiner #651201). A typical 8-point dilution series would be 100, 30, 10, 3, 1, 0.3, 0.1, […]. Reactions were performed in duplicate in black 384 well plates (small volume, Greiner 784076) in a final reaction volume of 21 μl. Either 1 μl of 50% DMSO or diluted compound was added to the plate. USP30 was diluted in reaction buffer (40 mM Tris, pH 7.5, 0.005% Tween 20, 0.5 mg/ml BSA, 5 mM beta-mercaptoethanol) to the equivalent of 0.05 μl/well and 10 μl of diluted USP30 was added to the compound. Enzyme and compound were incubated for 30 min at room temp. Reactions were initiated by the addition of 50 nM of TAMRA labelled peptide linked to ubiquitin via an iso-peptide bond as fluorescence polarisation substrate. Reactions were read immediately after addition of substrate and following a 2 h incubation at room temperature. Readings were performed on a Pherastar Plus (BMG Labtech). λ Excitation 540 nm; λ Emission 590 nm.
(In general: In fluorescence polarisation assays a small probe gives low polarisation when free and higher when bound to something large.)
In the case of `N#Cc1cc(-c2nnc([C@@]3(F)CCCN(C#N)C3)o2)ccn1` [Example 12, (R)-4-(5-(1-cyano-3-fluoropiperidin-3-yl)-1,3,4-oxadiazol-2-yl)picolinonitrile], the IC50 was 1 to 10 µM. To `N#Cc1cccc(-c2ccc3oc([C@@]4(F)CCCN(C#N)C4)nc3c2)c1` [Example 22, (R)-3-(5-(3-cyanophenyl)benzo[d]oxazol-2-yl)-3-fluoropiperidine-1-carbonitrile] belongs 0.01 to 0.1 µM. To `N#Cc1cccc(-c2ccc3nc(C4(F)CCCN(C#N)C4)[nH]c3n2)c1` (stereo in doubt) [Example 16, (S)-3-(5-(3-cyanophenyl)-3H-imidazo[4,5-b]pyridin-2-yl)-3-fluoropiperidine-1-carbonitrile] belongs 0.01 to 0.1 µM. Then `N#Cc1cc(-c2ccc3nc([C@@]4(F)CCCN(C#N)C4)oc3c2)ccn1` [Example 27, (R)-4-(2-(1-cyano-3-fluoropiperidin-3-yl)benzo[d]oxazol-6-yl)picolinonitrile], with 0.1 to 1 µM; and `N#Cc1cc(-c2ccn3cc([C@@]4(F)CCCN(C#N)C4)nc3c2)ccn1` [Example 31, (R)-4-(2-(1-cyano-3-fluoropiperidin-3-yl)imidazo[1,2-a]pyridin-7-yl)picolinonitrile], with 0.1 to 1 µM; and `N#CN1CCC[C@](F)(c2nnc(-c3cccc(-c4ccccc4)c3)o2)C1` [Example 9, (R)-3-(5-([1,1′-biphenyl]-3-yl)-1,3,4-oxadiazol-2-yl)-3-fluoropiperidine-1-carbonitrile], with 0.01 to 0.1 µM. As to `N#Cc1cc(-c2ccnc(-c3nnc([C@@]4(F)CCCN(C#N)C4)o3)c2)ccn1` [Example 13, (R)-2′-(5-(1-cyano-3-fluoropiperidin-3-yl)-1,3,4-oxadiazol-2-yl)-[4,4′-bipyridine]-2-carbonitrile], the IC50 fell in the range of 1 to 10 µM. Then `N#CN1CCCC(F)(c2nc3ccc(-c4ccn[nH]4)nc3[nH]2)C1` (racemic) [Example 17, 3-(5-(1H-pyrazol-5-yl)-3H-imidazo[4,5-b]pyridin-2-yl)-3-fluoropiperidine-1-carbonitrile], with 1 to 10 µM; and `N#Cc1cc(-c2cnc3nc([C@@]4(F)CCCN(C#N)C4)[nH]c3c2)ccn1` [Example 18, (R)-4-(2-(1-cyano-3-fluoropiperidin-3-yl)-3H-imidazo[4,5-b]pyridin-6-yl)picolinonitrile], with 0.1 to 1 µM; and `N#Cc1cc(-c2ccc3nc([C@@]4(F)CCCN(C#N)C4)[nH]c3n2)ccn1` [Example 19, (R)-4-(2-(1-cyano-3-fluoropiperidin-3-yl)-1H-imidazo[4,5-b]pyridin-5-yl)picolinonitrile], with 0.1 to 1 µM. To `N#Cc1ccnc(-c2ccc3oc([C@@]4(F)CCCN(C#N)C4)nc3c2)n1` [Example 24, (R)-2-(2-(1-cyano-3-fluoropiperidin-3-yl)benzo[d]oxazol-5-yl)pyrimidine-4-carbonitrile] belongs 0.1 to 1 µM. To `N#Cc1cc(-c2ccc3oc([C@@]4(F)CCCN(C#N)C4)nc3c2)ncn1` [Example 23, (R)-6-(2-(1-cyano-3-fluoropiperidin-3-yl)benzo[d]oxazol-5-yl)pyrimidine-4-carbonitrile] belongs 0.1 to 1 µM; to `N#CN1CCCC(F)(c2nc3ccc(-c4ccn[nH]4)cc3[nH]2)C1` (centres unmarked) [Example 14, 3-(6-(H-pyrazol-5-yl)-1H-benzo[d]imidazol-2-yl)-3-fluoropiperidine-1-carbonitrile], 1 to 10 µM. For the molecule `N#CN1CCCC(F)(c2nnc(-c3ccc(-c4ccccc4)cc3)o2)C1` (centres unmarked) [Example 10, 3-(5-([1,1′-biphenyl]-4-yl)-1,3,4-oxadiazol-2-yl)-3-fluoropiperidine-1-carbonitrile], the IC50 fell in the range of 0.1 to 1 µM. Then `N#Cc1ccnc(-c2ccc3oc([C@@]4(F)CCCN(C#N)C4)nc3c2)c1` [Example 26, (R)-2-(2-(1-cyano-3-fluoropiperidin-3-yl)benzo[d]oxazol-5-yl)isonicotinonitrile], with 0.1 to 1 µM. To `N#CN1CCC[C@](F)(c2nc3ccc(-c4ccccc4)nc3[nH]2)C1` [Example 15, (R)-3-fluoro-3-(5-phenyl-3H-imidazo[4,5-b]pyridin-2-yl)piperidine-1-carbonitrile] belongs 0.1 to 1 µM; to `N#CN1CCOC(c2nc(-c3cccc(-c4ccccc4)c3)n[nH]2)C1` (centres unmarked) [Example 6, 2-(3-([1,1′-Biphenyl]-3-yl)-H-1,2,4-triazol-5-yl)morpholine-4-carbonitrile], 1 to 10 µM. As to `N#Cc1cc(-c2cc(-c3nnc([C@@]4(F)CCCN(C#N)C4)o3)ccn2)ccn1` [Example 11, (R)-4-(5-(1-cyano-3-fluoropiperidin-3-yl)-1,3,4-oxadiazol-2-yl)-[2,4′-bipyridine]-2′-carbonitrile], the IC50 was in the range of 0.1 to 1 µM. To `N#Cc1cc(-c2ccc3oc([C@@]4(F)CCCN(C#N)C4)nc3c2)ccn1` [Example 25, (R)-4-(2-(1-cyano-3-fluoropiperidin-3-yl)benzo[d]oxazol-5-yl)picolinonitrile] belongs 0.01 to 0.1 µM; to `N#Cc1cc(-c2cnc3oc([C@@]4(F)CCCN(C#N)C4)nc3c2)ccn1` [Example 30, (R)-4-(2-(1-cyano-3-fluoropiperidin-3-yl)oxazolo[5,4-b]pyridin-6-yl)picolinonitrile], 0.1 to 1 µM. To `N#Cc1cccc(-c2ccc3nc([C@@]4(F)CCCN(C#N)C4)[nH]c3n2)n1` [Example 21, (R)-6-(2-(1-cyano-3-fluoropiperidin-3-yl)-3H-imidazo[4,5-b]pyridin-5-yl)picolinonitrile] belongs 1 to 10 µM; to `N#Cc1cccc(-c2cnc3oc([C@@]4(F)CCCN(C#N)C4)nc3c2)c1` (stereo in doubt) [Example 28, 3-(6-(3-cyanophenyl)oxazolo[5,4-b]pyridin-2-yl)-3-fluoropiperidine-1-carbonitrile], 0.1 to 1 µM. Regarding `N#Cc1cccc(-c2cnc3nc(C4(F)CCCN(C#N)C4)oc3c2)c1` (centres unmarked) [Example 29, 3-(6-(3-cyanophenyl)oxazolo[4,5-b]pyridin-2-yl)-3-fluoropiperidine-1-carbonitrile], the IC50 was in the range of 0.1 to 1 µM.
